17 compounds from ChEMBL document CHEMBL4732252, “Generating Selective Leads for Mer Kinase Inhibitors-Example of a Comprehensive Lead-Generation Strategy” (J Med Chem, 2021) can be followed below.

In brackets after ≈: the same amount, converted by molar mass.

By IC50 is commonly meant the concentration that inhibits the measured activity by half. Read a low IC50 as higher potency. By logD is commonly meant lipophilicity at a set pH, counting ionised and neutral species. A high value points to a more lipophilic compound. For orientation: solubility means the concentration that dissolves in the medium under given conditions. The low end stands for little dissolved substance, the high end for much dissolved substance.

Series [1] concerns the target T1, Tyrosine-protein kinase receptor UFO (Homo sapiens, UniProt P30530).
T1 sequence (P30530 whole entry): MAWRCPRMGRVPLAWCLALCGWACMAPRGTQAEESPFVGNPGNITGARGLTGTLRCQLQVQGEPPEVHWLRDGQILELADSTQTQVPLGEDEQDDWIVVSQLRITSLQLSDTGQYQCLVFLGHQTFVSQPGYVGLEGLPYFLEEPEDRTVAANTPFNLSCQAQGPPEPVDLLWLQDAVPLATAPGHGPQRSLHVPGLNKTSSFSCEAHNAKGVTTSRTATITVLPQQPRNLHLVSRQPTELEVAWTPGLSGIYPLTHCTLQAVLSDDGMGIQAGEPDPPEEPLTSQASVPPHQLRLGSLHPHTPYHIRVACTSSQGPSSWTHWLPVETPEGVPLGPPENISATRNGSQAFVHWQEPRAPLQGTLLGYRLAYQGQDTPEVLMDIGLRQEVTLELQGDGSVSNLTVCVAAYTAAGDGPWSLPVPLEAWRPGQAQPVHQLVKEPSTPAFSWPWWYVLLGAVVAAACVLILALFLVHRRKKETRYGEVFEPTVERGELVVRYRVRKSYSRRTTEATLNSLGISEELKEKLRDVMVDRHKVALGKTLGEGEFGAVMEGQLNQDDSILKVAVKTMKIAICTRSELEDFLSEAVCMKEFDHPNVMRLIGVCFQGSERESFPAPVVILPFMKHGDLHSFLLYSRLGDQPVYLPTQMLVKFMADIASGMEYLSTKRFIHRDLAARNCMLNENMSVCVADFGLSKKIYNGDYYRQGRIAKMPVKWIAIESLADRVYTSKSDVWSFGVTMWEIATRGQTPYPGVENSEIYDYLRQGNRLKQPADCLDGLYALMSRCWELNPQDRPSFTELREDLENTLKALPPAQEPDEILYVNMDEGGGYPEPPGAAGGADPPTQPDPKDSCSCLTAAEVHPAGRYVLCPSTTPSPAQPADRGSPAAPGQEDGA
The experiment in a line: Inhibition of GST-tagged AXL (unknown origin) ([…] residues) using Axltide (CKKSRGDYMTMQJG-acid) peptide as substrate preincubated for 30 mins followed by substrate and ATP addition at Km concentration measured after 180 mins by RapidFire LC-MS analysis.

A short description of series [2]: Distribution coefficient, logD of compound at pH 7.4. The class given is physicochemical. Particulars: octanol/water.
Series [3] in a line: Intrinsic clearance in human liver microsomes. In kind it is ADME, Microsome. Particulars: read-out: CLH. On the technique in general: Liver microsomes are a subcellular fraction often used to study metabolism.
For series [4], the target named is T2, Tyrosine-protein kinase receptor TYRO3 (Homo sapiens, UniProt Q06418).
T2 sequence (Q06418 whole entry): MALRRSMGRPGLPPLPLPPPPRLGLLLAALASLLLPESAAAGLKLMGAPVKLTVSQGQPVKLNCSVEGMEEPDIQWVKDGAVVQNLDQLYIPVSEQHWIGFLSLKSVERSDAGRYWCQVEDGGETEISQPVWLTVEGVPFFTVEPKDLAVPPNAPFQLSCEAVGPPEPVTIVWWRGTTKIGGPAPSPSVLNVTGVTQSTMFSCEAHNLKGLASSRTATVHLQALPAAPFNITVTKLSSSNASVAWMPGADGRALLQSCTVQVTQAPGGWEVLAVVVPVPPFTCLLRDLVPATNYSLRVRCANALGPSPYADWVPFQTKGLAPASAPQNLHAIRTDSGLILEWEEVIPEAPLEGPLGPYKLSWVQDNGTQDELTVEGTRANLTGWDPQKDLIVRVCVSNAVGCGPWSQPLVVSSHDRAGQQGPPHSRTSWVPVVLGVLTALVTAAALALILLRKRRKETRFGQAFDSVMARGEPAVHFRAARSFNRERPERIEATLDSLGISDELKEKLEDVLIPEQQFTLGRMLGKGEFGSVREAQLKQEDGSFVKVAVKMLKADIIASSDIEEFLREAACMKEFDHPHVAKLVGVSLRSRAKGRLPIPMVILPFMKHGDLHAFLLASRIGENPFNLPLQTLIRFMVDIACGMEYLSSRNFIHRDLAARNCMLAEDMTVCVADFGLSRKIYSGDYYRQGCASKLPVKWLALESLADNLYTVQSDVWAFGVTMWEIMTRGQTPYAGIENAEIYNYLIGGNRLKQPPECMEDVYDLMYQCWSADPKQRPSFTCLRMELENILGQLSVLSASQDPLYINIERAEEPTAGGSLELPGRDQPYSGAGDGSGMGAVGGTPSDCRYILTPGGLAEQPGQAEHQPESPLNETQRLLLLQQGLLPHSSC
Kind of series: Inhibition of GST-tagged Tyro3 (unknown origin) (453 to 890 residues) using Axltide (KKSRGDYMTMQIG-acid) peptide as substrate preincubated for 30 mins followed by substrate and ATP addition at Km concentration measured after 180 mins by RapidFire LC-MS analysis.

Series [5] can be described thus: Aqueous solubility of the compound. In kind it is physicochemical.

Turning to `COc1cc2ncnc(Nc3cnc(OCCC4CC4)nc3)c2cc1OCC1CCNCC1`, the concentration for half-maximal inhibition (IC50) is 3.16 µM in series [1] and 2 µM in series [4]. Besides, the logD in series [2] worked out at 1.4. For the same compound, in series [3], the microsomal CLint was below 3 µL/min/mg. In series [5], this compound gave a solubility of 260 µM (≈ 117 µg/mL).
As for `C[C@@H]1CN(c2cnc(Nc3cc(F)c(OCC4CC4)c(F)c3)nc2NC2CCOCC2)CCN1`, the 50% inhibitory concentration (IC50) in series [1] is 1.58 µM; in series [4] it was 0.251 µM. Further, in series [2], the logD worked out at 3.2. The microsomal CLint in series [3] is below 3 µL/min/mg. Also, the solubility in series [5] turned out to be 400 µM (≈ 190 µg/mL).
In the case of `CN(Cc1ccc2nccn2c1)c1nnc(-c2ccc(-c3ccccc3Cl)cc2)o1`, the IC50 was 0.398 µM in series [1] and 10 µM in series [4]. The same compound displayed a logD in series [2] of 4.8. Besides, the microsomal CLint in series [3] was determined as 46 µL/min/mg. In addition, the solubility in series [5] was found to be 1.1 µM (≈ 0.457 µg/mL).
As to `CNC(=O)c1sc(N2CC3CC2(CNC(=O)c2c[nH]c4ncc(Cl)cc24)C3)nc1C(F)(F)F`, the values for the IC50 in series [1] and in series [4] were 0.01 µM and 0.631 µM, respectively. The logD in series [2] is 4. The microsomal CLint in series [3] is above 300 µL/min/mg. Moreover, the concentration in solution in series [5] (solubility) came to 2 µM (≈ 0.998 µg/mL).
Take `O=S(=O)(c1ccc(Nc2ncc(N3CCOCC3)c(Nc3ccccc3)n2)cc1)N1CCCCC1`: the IC50 in series [1] is 0.2 µM; in series [4], 6.31 µM. In series [2], the pH-dependent lipophilicity (logD) came out at 4.5. The microsomal CLint in series [3] was determined as 190 µL/min/mg. The same compound showed a solubility in series [5] of 0.6 µM (≈ 0.297 µg/mL).
For the compound `CN(Cc1ccc2nccn2c1)c1nnc(-c2ccc(OC3CCCC3)cc2)o1`, the values for the IC50 in series [1] and in series [4] were 3.98 µM and 79.4 µM, respectively. In series [2], this compound yielded a log distribution coefficient (logD) of 4.1. In addition, the microsomal CLint in series [3] came out at 150 µL/min/mg. The concentration in solution in series [5] (solubility) was 33 µM (≈ 12.9 µg/mL).
The like results for `CN(Cc1ccc2c(c1)CCCO2)c1nnc(-c2ccc(-c3ccccc3Cl)cc2)o1` were, in that order, 0.398 µM, above 100 µM, above 5.6, 19 µL/min/mg and 0.1 µM (≈ 0.0432 µg/mL).
On to `CNC(=O)c1sc(N2CC3CC2(CNC(=O)c2c[nH]c4ncccc24)C3)nc1C(F)(F)F`, for which the half-inhibitory concentration (IC50) in series [1] was 0.01 µM; in series [4], 2 µM. This compound returned a log distribution coefficient (logD) in series [2] of 3.1. Further, in series [3], the microsomal CLint amounted to 200 µL/min/mg. Also, the solubility in series [5] was below 1.6 µM.
Take `CCn1c(-c2nnc(N(C)Cc3ccc4nccn4c3)o2)nc2ccccc21`: the IC50 in series [1] and in series [4] was 39.8 µM throughout. Besides, the logD in series [2] is 3. Moreover, the microsomal CLint in series [3] came to 55 µL/min/mg. Further, in series [5], the solubility amounted to 120 µM (≈ 44.8 µg/mL).
As to `Cc1cc(N(C)C)ccc1-c1nnc(N(C)Cc2ccc3nccn3c2)o1`, the IC50 in series [1] was 15.8 µM; in series [4], above 100 µM. The compound also yielded a logD in series [2] of 3.2. Also, the microsomal CLint in series [3] was determined as 55 µL/min/mg. The compound also yielded a solubility in series [5] of 23 µM (≈ 8.34 µg/mL).
As for `CNC(=O)c1sc(N2CC3CC2(CNC(=O)c2c[nH]c4ncc(C)cc24)C3)nc1C(F)(F)F`, the figures for the IC50 in series [1] and in series [4] were 0.00398 µM and 1 µM, respectively. In addition, the logD in series [2] stood at 3.5. Also, the microsomal CLint in series [3] was above 270 µL/min/mg. The same compound showed a solubility in series [5] below 1.6 µM.
Regarding `Cc1c(C(=O)Nc2ccc(Oc3ccnc4[nH]cc(-c5ccccc5)c34)c(F)c2)c(=O)n(-c2ccc(F)cc2)n1C`, the IC50 is 0.00316 µM in series [1] and 0.01 µM in series [4]. Also, in series [2], the log distribution coefficient (logD) is above 5. Also, the microsomal CLint in series [3] turned out to be 16 µL/min/mg. Moreover, in series [5], the solubility was 0.01 µM (≈ 0.00552 µg/mL).
Turning to `CNC(=O)c1sc(N2CC3CC2(CNC(=O)c2c[nH]c4ncc(C(F)(F)F)cc24)C3)nc1C(F)(F)F`, the IC50 in series [1] is 0.0251 µM; in series [4] it was above 100 µM. The compound further showed a logD in series [2] of 4.2. Besides, the microsomal CLint in series [3] turned out to be 130 µL/min/mg. Moreover, in series [5], the solubility was below 1.6 µM.
The like results for `CN(Cc1ccc2nccn2c1)c1nnc(-c2ccc(-c3ccccc3Cl)nc2)o1` were, in that order, 3.16 µM, 20 µM, 3.3, 92 µL/min/mg and 10 µM (≈ 4.17 µg/mL).
Take `CNc1nc(OCC2CCC2)nc2c1ncn2Cc1c(F)cccc1F`: the results for the IC50 in series [1] and in series [4] were 1.58 µM and 3.16 µM, respectively. The log distribution coefficient (logD) in series [2] turned out to be 4.4. Further, the microsomal CLint in series [3] was above 270 µL/min/mg. The solubility in series [5] is 4 µM (≈ 1.44 µg/mL).
Regarding `CN(Cc1ccc2nccn2c1)c1nnc(-c2ncc(C(F)(F)F)cc2Cl)o1`, the half-maximal inhibitory concentration (IC50) in series [1] and in series [4] was above 100 µM throughout. In series [2], this compound displayed a logD of 2.6. Besides, the microsomal CLint in series [3] was 11 µL/min/mg. In addition, the solubility in series [5] stood at 301 µM (≈ 123 µg/mL).
In the case of `CNC(=O)C[C@@H](NC(=O)[C@@H](CCc1ccccc1)NC(=O)c1c(C)noc1-c1snnc1C)c1ccc(C(F)(F)F)cc1`, the results for the half-inhibitory concentration (IC50) in series [1] and in series [4] were 0.0158 µM and 0.0316 µM, respectively. Further, the logD in series [2] turned out to be 4.2. For the same compound, the microsomal CLint in series [3] is above 300 µL/min/mg. This compound also yielded a solubility in series [5] below 0.2 µM.
